A short description of the data set: Lipophilicity, log P of the compound. Format: physicochemical. The note with it: octanol/water.

One may read the logP as the decadic logarithm of the partition coefficient of the neutral form, usually between octanol and water. Higher therefore signals higher lipophilicity. The molecule `Cc1cc(-c2cc(NC(=O)c3ccc(CN4CCN(C)CC4)cc3)[nH]n2)ccc1NC(=O)Nc1cc(C(C)(C)C)on1` returned a logP of 4.54.
`Cc1cc(-c2cc(NC(=O)c3ccc(CN4CCN(C)CC4)cc3)[nH]n2)ccc1N`: the logP is 2.61.

The record behind these values is ChEMBL document CHEMBL3808352, “Pyrazolylamine Derivatives Reveal the Conformational Switching between Type I and Type II Binding Modes of Anaplastic Lymphoma Kinase (ALK)” (J Med Chem, 2016).
